{"source": "patent US20220218679A1", "about": "“NOVEL COMPOUNDS AND PHARMACEUTICAL COMPOSITIONS THEREOF FOR THE TREATMENT OF INFLAMMATORY DISORDERS” (Galapagos NV, priority 2019, published 2022)", "key": {"THP-1-Lucia NFκB cells": {"test_system": "THP-1-Lucia NFκB cells", "assay": "THP1-Lucia NFκB reporter assay (LPS, IL-1β, TNFα triggering)", "format": "cell-based", "details": "for EC50: 24 h incubation", "text": "This assay was used to evaluate the IRAK4 selectivity and potency of the compounds of the invention upon IRAK4 dependent (LPS and IL-1β) and independent triggering (TNFα), in a THP1-Lucia NFκB reporter assay.\nTHP-1-Lucia NFκB cells (Invivogen—5, rue Jean Rodier 31400 Toulouse France—cat #thp1-nfkb) were cultivated as recommended by the supplier using split cycles each cycle comprising a succession of thawing/expansion/seeding. The data reported were generated using cells having between 3 to 9 cycles. On the day of the experiment THP-1-Lucia NFκB cells were counted and seeded at a density of 1,000,000 cells/mL in culture medium (RPMI 1640 (Gibco, Cat #52400-025)+10% FBS (Sigma, Cat #F7524-500ML)+1% P/S (Gibco, Cat #15140-122)) by pipetting 54 μL/well in a 384 well plate. Thereafter, 6 μL of a 10× trigger solution was added to all wells, at final concentrations of 2.5, 10 and 3 ng/mL for respectively LPS, TNFα and IL-1β, except for ‘no trigger wells’ where 6 μL culture medium only was added.\nAfter trigger addition, compounds were added with a digital compound dispenser, in a 8-points concentration range, using 3-fold dilution steps and normalizing the final DMSO concentration to 0.2% DMSO in all wells.\nAfter 24 h incubation at 37° C., 5% CO2, 40 μL of supernatant was collected per well and transferred to a new 384 well plate that was then stored at −20° C. until further use.\nFor the readout, supernatant samples were thawed on ice and 5 μL sample was transferred from each well to a new 384-well plate. 20 μL of Quanti-Luc solution (Quanti-Luc powder (Invivogen, Cat #rep-qlc1) dissolved in 25 mL sterile water as indicated by the manufacturer) was added to each well after which luminescence was immediately measured on an Envision instrument.\nTo measure the inhibition of LPS/TNFα/IL-1β-induced NFκB-reporter activity, percentage inhibition (PIN) values were calculated for all concentrations tested, compared to controls. […]"}, "mouse CIA model": {"test_system": "mouse CIA model", "assay": "Mouse collagen induced arthritis (CIA) model", "format": "in vivo, DBA1/J mice", "details": "3, 10 and 30 mg/kg b.i.d., versus disease vehicle group", "experimental": "Completed Freund's adjuvant (CFA) and incomplete Freund's adjuvant (IFA) were purchased from Difco. Bovine collagen type II (CII), lipopolysaccharide (LPS), and Enbrel was obtained from Chondrex (Isle d'Abeau, France); Sigma (P4252, L'Isle d'Abeau, France), Whyett (25 mg injectable syringe, France) Acros Organics (Palo Alto, Calif.), respectively. All other reagents used were of reagent grade and all solvents were of analytical grade.\nDBA1/J mice (male, 7-8 weeks old) were obtained from Charles River Laboratories (France). Mice were kept on a 12 h light/dark cycle (07 h 00-19 h 00). Temperature was maintained at 22° C., and food and water were provided ad libitum.\n5.1.3. Collagen Induced Arthritis (CIA)\nOne day before the experiment, CII solution (2 mg/mL) was prepared with 0.05 M AcOH and stored at 4° C. Just before the immunization, equal volumes of adjuvant […] and CII were mixed by a homogenizer in a pre-cooled glass bottle in an ice water bath. Extra adjuvant and prolonged homogenization may be required if an emulsion was not formed. […]\nThe therapeutic effects of the compounds were tested in the mouse CIA model. […] Body weight and clinical score, were recorded twice a week. […]\nArthritis is scored according to the method of (Khachigian, 2006; Lin et al., 2007; Nishida et al., 2004). […]\nFor each readout, mean and sem are calculated. […]"}}, "note": "Where two headings read alike, the source gives them in different places."}
{"smiles": "COc1cn2nc(CCC(C)(C)O)cc2cc1NC(=O)c1cccn(C2CC2)c1=O", "note": "[Compound 1, 1-cyclopropyl-N-[2-(3-hydroxy-3-methylbutyl)-6-methoxypyrazolo[1,5-a]pyridin-5-yl]-2-oxopyridine-3-carboxamide]", "values": [{"measurement": "EC50", "setting": "THP-1-Lucia NFκB cells; IL-1β trigger 3 ng/mL, read-out: IL-1β driven NFκB-reporter activity, average pEC50 (converted)", "value": 100, "unit": "nM"}, {"measurement": "EC50", "setting": "THP-1-Lucia NFκB cells; LPS trigger 2.5 ng/mL, read-out: LPS driven NFκB-reporter activity, average pEC50 (converted)", "value": 100, "unit": "nM"}, {"measurement": "TNFα mediated NFκB-reporter activity", "setting": "THP-1-Lucia NFκB cells; TNFα trigger 10 ng/mL, 24 h incubation (IRAK4 independent)", "value": "no activity was observed"}, {"measurement": "effect on bone erosion Larsen Score", "setting": "mouse CIA model", "value": "statistically significant effect"}, {"measurement": "effect on clinical score", "setting": "mouse CIA model", "value": "statistically significant effect"}]}
